Measured values reported in patent US5099015A, “Trifluoromethyl 1-carba(1-dethia)cephems” (Eli Lilly and Company, priority 1991, dated 1992).
≈ marks a conversion by molar mass, not a printed value. Like-named read-outs stand apart in the source and are kept apart here.

How the values were obtained:
Experiment in all cases: Agar dilution antibacterial test (MIC)
Type in all cases: cell-based
Citro CF17 = test system: Citro CF17
Procedure: (§1) Fresh overnight cultures of test bacteria were diluted to approximately 1x(10)4 cells/microliter and applied in one microliter volumes to the surfaces of the agar plates. The innoculated plates were incubated overnight at 35° C. in ambient air. Minimum inhibitory concentration (mic) endpoints were recorded as the lowest antibiotic concentrations in micrograms per milliliter that inhibited the development of visible growth on the plates. The following summarizes the results of such tests with the compounds of the examples listed above.

[1] = test system: Enterobacter aerogenes C32
Procedure: as §1

[2] = test system: Enterobacter aerogenes EB17
Procedure: as §1

[3] = test system: Enterobacter cloacae 265A
Procedure: as §1

Enterobacter cloacae EB5 = test system: Enterobacter cloacae EB5
Procedure: as §1

[4] = test system: Enterococcus faecalis 2041
Procedure: as §1

Enterococcus faecium X66 = test system: Enterococcus faecium X66
Procedure: as §1

Escherichia coli EC14 = test system: Escherichia coli EC14
Procedure: as §1

Escherichia coli N10 = test system: Escherichia coli N10
Procedure: as §1

Escherichia coli TEM = test system: Escherichia coli TEM
Procedure: as §1

[5] = test system: Haemophilus influenzae 76; conditions: read-out: MIC
Procedure: as §1

[6] = test system: Haemophilus influenzae C.L.
Procedure: as §1

[7] = test system: Klebsiella pneumoniae KAE
Procedure: as §1

[8] = test system: Klebsiella pneumoniae X26; conditions: read-out: MIC
Procedure: as §1

[9] = test system: Klebsiella pneumoniae X68
Procedure: as §1

Morg morg PR15 = test system: Morg morg PR15
Procedure: as §1

Proteus incon PR33 = test system: Proteus incon PR33
Procedure: as §1

Proteus rett C24 = conditions: Proteus rett C24
Procedure: as §1

Salmonella 1335 = test system: Salmonella 1335
Procedure: as §1

Salmonella X514 = test system: Salmonella X514
Procedure: as §1

Serratia SE3 = test system: Serratia SE3
Procedure: as §1

Serratia X99 = test system: Serratia X99
Procedure: as §1

Shig sonn. N9 = test system: Shig sonn. N9
Procedure: as §1

[10] = test system: Staphylococcus aureus NRRL X1.1
Procedure: as §1

[11] = test system: Staphylococcus aureus S13E
Procedure: as §1

[12] = test system: Staphylococcus aureus V41
Procedure: as §1

[13] = test system: Staphylococcus aureus X400
Procedure: as §1

[14] = test system: Staphylococcus epidermidis 222
Procedure: as §1

[15] = test system: Staphylococcus epidermidis EPI270
Procedure: as §1

[16] = test system: Staphylococcus pneumoniae Park 1; conditions: PARK1, read-out: MIC
Procedure: as §1

[17] = test system: Staphylococcus pyogenes C203; conditions: read-out: MIC
Procedure: as §1

Acom AC12 = test system: Acom AC12
Procedure: as §1

[18] = Klebsiella aerogenes, read-out: MIC

N[C@@H](C(=O)N[C@@H]1C(=O)N2C(C(=O)O)=C(C(F)(F)F)CC[C@H]12)c1ccccc1 [Compound 1, 7β-[D-α-(amino)phenylacetylamino]-3-trifluoromethyl-1-carba-(1-dethia)-3-cephem-4-carboxyl ic acid]
MIC (Citro CF17; read-out: MIC): 8 µg/mL (≈ 20.9 µM)
MIC [1, 18]: 4 µg/mL (≈ 10.4 µM)
MIC [2, 18]: 4 µg/mL (≈ 10.4 µM)
MIC ([3]; read-out: MIC): 16 µg/mL (≈ 41.7 µM)
MIC (Enterobacter cloacae EB5; read-out: MIC): 8 µg/mL (≈ 20.9 µM)
MIC ([4]; read-out: MIC): 16 µg/mL (≈ 41.7 µM)
MIC (Enterococcus faecium X66; read-out: MIC): 32 µg/mL (≈ 83.5 µM)
MIC (Escherichia coli EC14; read-out: MIC): 0.5 µg/mL (≈ 1.3 µM)
MIC (Escherichia coli N10; read-out: MIC): 2 µg/mL (≈ 5.22 µM)
MIC (Escherichia coli TEM; read-out: MIC): 0.5 µg/mL (≈ 1.3 µM)
MIC [5]: 1 µg/mL (≈ 2.61 µM)
MIC ([6]; read-out: MIC): 0.5 µg/mL (≈ 1.3 µM)
MIC ([7]; read-out: MIC): 8 µg/mL (≈ 20.9 µM)
MIC [8]: 0.25 µg/mL (≈ 0.652 µM)
MIC ([9]; read-out: MIC): 0.5 µg/mL (≈ 1.3 µM)
MIC (Morg morg PR15; read-out: MIC): 32 µg/mL (≈ 83.5 µM)
MIC (Proteus incon PR33; read-out: MIC): 16 µg/mL (≈ 41.7 µM)
MIC (Proteus rett C24; read-out: MIC): 8 µg/mL (≈ 20.9 µM)
MIC (Salmonella 1335; read-out: MIC): 1 µg/mL (≈ 2.61 µM)
MIC (Salmonella X514; read-out: MIC): 0.25 µg/mL (≈ 0.652 µM)
MIC (Serratia SE3; read-out: MIC): 32 µg/mL (≈ 83.5 µM)
MIC (Serratia X99; read-out: MIC): 8 µg/mL (≈ 20.9 µM)
MIC (Shig sonn. N9; read-out: MIC): 1 µg/mL (≈ 2.61 µM)
MIC ([10]; NRRLX1.1, read-out: MIC): 2 µg/mL (≈ 5.22 µM)
MIC [11]: 32 µg/mL (≈ 83.5 µM)
MIC ([12]; read-out: MIC): 16 µg/mL (≈ 41.7 µM)
MIC ([13]; read-out: MIC): 64 µg/mL (≈ 167 µM)
MIC ([14]; read-out: MIC): 4 µg/mL (≈ 10.4 µM)
MIC ([15]; read-out: MIC): 4 µg/mL (≈ 10.4 µM)
MIC [16]: 0.125 µg/mL (≈ 0.326 µM)
MIC [17]: 0.06 µg/mL (≈ 0.157 µM)

N[C@@H](C(=O)N[C@@H]1C(=O)N2C(C(=O)O)=C(C(F)(F)F)CC[C@H]12)c1ccc(O)cc1 [Compound 2, [6R,7S]-7β-[D-α-(amino)-4-hydroxyphenylacetylamino]-3-trifluoromethyl-1-carba-1-dethia-3-cephem-4-carboxylic acid]
MIC (Acom AC12; read-out: MIC): 21.3 µg/mL (≈ 53.3 µM)
MIC (Citro CF17; read-out: MIC): 5.3 µg/mL (≈ 13.3 µM)
MIC [1, 18]: 2.08 µg/mL (≈ 5.21 µM)
MIC [2, 18]: 1.83 µg/mL (≈ 4.58 µM)
MIC ([3]; read-out: MIC): 2.3 µg/mL (≈ 5.76 µM)
MIC (Enterobacter cloacae EB5; read-out: MIC): 4.3 µg/mL (≈ 10.8 µM)
MIC ([4]; read-out: MIC): 22.4 µg/mL (≈ 56.1 µM)
MIC (Enterococcus faecium X66; read-out: MIC): 32 µg/mL (≈ 80.1 µM)
MIC (Escherichia coli EC14; read-out: MIC): 0.48 µg/mL (≈ 1.2 µM)
MIC (Escherichia coli N10; read-out: MIC): 0.85 µg/mL (≈ 2.13 µM)
MIC (Escherichia coli TEM; read-out: MIC): 0.75 µg/mL (≈ 1.88 µM)
MIC [5]: 0.9 µg/mL (≈ 2.25 µM)
MIC ([6]; read-out: MIC): 0.7 µg/mL (≈ 1.75 µM)
MIC ([7]; read-out: MIC): 2.3 µg/mL (≈ 5.76 µM)
MIC [8]: 0.3 µg/mL (≈ 0.751 µM)
MIC ([9]; read-out: MIC): 0.6 µg/mL (≈ 1.5 µM)
MIC (Morg morg PR15; read-out: MIC): 26.7 µg/mL (≈ 66.9 µM)
MIC (Proteus incon PR33; read-out: MIC): 2.3 µg/mL (≈ 5.76 µM)
MIC (Proteus rett C24; read-out: MIC): 6.7 µg/mL (≈ 16.8 µM)
MIC (Salmonella 1335; read-out: MIC): 0.58 µg/mL (≈ 1.45 µM)
MIC (Salmonella X514; read-out: MIC): 0.19 µg/mL (≈ 0.476 µM)
MIC (Serratia SE3; read-out: MIC): 16 µg/mL (≈ 40.1 µM)
MIC (Serratia X99; read-out: MIC): 4.7 µg/mL (≈ 11.8 µM)
MIC (Shig sonn. N9; read-out: MIC): 0.58 µg/mL (≈ 1.45 µM)
MIC ([10]; NRRLX1.1, read-out: MIC): 0.85 µg/mL (≈ 2.13 µM)
MIC [11]: 70.4 µg/mL (≈ 176 µM)
MIC ([12]; read-out: MIC): 7.2 µg/mL (≈ 18 µM)
MIC ([13]; read-out: MIC): 102 µg/mL (≈ 255 µM)
MIC ([14]; read-out: MIC): 2.2 µg/mL (≈ 5.51 µM)
MIC ([15]; read-out: MIC): 4.4 µg/mL (≈ 11 µM)
MIC [16]: 0.2 µg/mL (≈ 0.501 µM)
MIC [17]: 0.025 µg/mL (≈ 0.0626 µM)

CON=C(C(=O)N[C@@H]1C(=O)N2C(C(=O)O)=C(C(F)(F)F)CC[C@H]12)c1csc(N)n1 [Compound 4, [7S,6R]-7-([2-Amino-4-thiazolyl(methoxyimino)acetyl]amido)-3-trifluoromethyl-1-carba(b 1-dethia)-3-cephem-4-carboxylic acid]
MIC (Acom AC12): 16 µg/mL (≈ 36.9 µM)
MIC (Citro CF17): 8 µg/mL (≈ 18.5 µM)
MIC [1]: .25 µg/mL (≈ 0.577 µM)
MIC [2]: .125 µg/mL (≈ 0.288 µM)
MIC [3]: 64 µg/mL (≈ 148 µM)
MIC (Enterobacter cloacae EB5): .25 µg/mL (≈ 0.577 µM)
MIC [4]: 1 µg/mL (≈ 2.31 µM)
MIC (Enterococcus faecium X66): > 128 µg/mL
MIC (Escherichia coli EC14): .03 µg/mL (≈ 0.0692 µM)
MIC (Escherichia coli N10): .06 µg/mL (≈ 0.138 µM)
MIC (Escherichia coli TEM): .125 µg/mL (≈ 0.288 µM)
MIC [6]: .015 µg/mL (≈ 0.0346 µM)
MIC [7]: 32 µg/mL (≈ 73.8 µM)
MIC [9]: .015 µg/mL (≈ 0.0346 µM)
MIC (Morg morg PR15): 4 µg/mL (≈ 9.23 µM)
MIC (Proteus incon PR33): .125 µg/mL (≈ 0.288 µM)
MIC (Proteus rett C24): 1 µg/mL (≈ 2.31 µM)
MIC (Salmonella 1335): .06 µg/mL (≈ 0.138 µM)
MIC (Salmonella X514): .015 µg/mL (≈ 0.0346 µM)
MIC (Serratia SE3): 2 µg/mL (≈ 4.62 µM)
MIC (Serratia X99): .5 µg/mL (≈ 1.15 µM)
MIC (Shig sonn. N9): .06 µg/mL (≈ 0.138 µM)
MIC [10]: 4 µg/mL (≈ 9.23 µM)
MIC [11]: 16 µg/mL (≈ 36.9 µM)
MIC [12]: 8 µg/mL (≈ 18.5 µM)
MIC [13]: 128 µg/mL (≈ 295 µM)
MIC [14]: 4 µg/mL (≈ 9.23 µM)
MIC [15]: 8 µg/mL (≈ 18.5 µM)
